Source: patent US11044937B2, “Solution comprising nicotine in unprotonated form and protonated form” (Nicoventures Holdings Limited, priority 2014, dated 2021)
Read-outs that look alike come from different tables or passages of the source.

Assays:
[1] = on heating in an electronic vapor provision system; compared to many other acids
[2] = Description: The determination of pKa values of nicotine in glycerol/water systems was carried out using the basic approach described in “Spectroscopic investigations into the acid-base properties of nicotine at different temperatures”, Peter M. Clayton, Carl A. Vas, Tam T. T. Bui, Alex F. Drake and Kevin McAdam, Anal. Methods, 2013, 5, 81-88, and summarized below. Because the system is predominately non-aqueous the parameter psKa2 was measured, where subscript s refers to the solvent composition in this largely non-aqueous system, and subscript 2 refers to the pKa value of the pyrrolidyl nitrogen.
Further information on the determination of pKa values of nicotine is provided in “Use of chiroptical spectroscopy to determine the ionisation status of (S)-nicotine in e-cigarette formulations and snus”, Clayton et al, ST 49, CORESTA Congress, Qubec City, Canada, 12-16 Oct. 2014 (available at http://www.bat-science.com/groupms/sites/BAT_9GVJXS.nsf/vwPagesWebLive/DO9PVC3 G/$FILE/CORE STA_PC_2014.pdf).
A range of glycerol/water/nicotine solutions were prepared, with the water concentration fixed at 9%, the nicotine concentration varying from 30 μg/ml to 3 mg/ml; and the glycerol content comprising the remainder of the solutions.
Simultaneous UV & CD spectra of glycerol/s-nicotine/water solutions were measured on the Applied Photophysics Ltd (Leatherhead, UK) Chiracsan Plus spectrometer. The UV absorbance & CD spectra were measured between 300-200 nm region, with various pathlengths depending upon the nicotine concentration of the solution—10 mm, 5 mm, 2 mm, 1 mm, 0.5 mm, 0.1 mm and 0.01 mm pathlengths. The instrument was flushed continuously with pure evaporated nitrogen throughout the measurements. Throughout measurements spectra were recorded with a 0.5 nm step size, a 1 s measurement time-per-point and a spectral bandwidth of 2 nm. Where possible, all CD spectra were smoothed with a window factor of 4 using the Savitzky-Golay method for better presentation.
Solutions of S-Nicotine in glycerol/water were pH titrated at 23° C. The pH of these solutions was raised towards alkaline by adding small aliquots of NaOH (˜pH10) and then lowered to pH2 by adding small aliquots of HCl. A series of 0.1M, 0.5M, 1M, 5M and 10M of HCl and NaOH solutions were used during the pH titration. pHs were measured at 23° C. using a Corning pH105 pH meter with a RMS pH electrode. […] Due to the viscosity of the solutions, and the optical density in the CD spectra of the high nicotine concentration solutions, very small path-length cells were required for nicotine concentrations above 3 mg/ml.

| Structure (SMILES) | level of acid transfer to the aerosol [1] | production of degradation products [1] | psKa2 ([2]; at 30 mg/ml nicotine concentration, from curve fitting (regression fit to FIG. 1)) | psKa2 ([2]; nicotine 0.03 g/L (0.185 mM), 9% water, nicotine/glycerol system, 23° C.) | psKa2 ([2]; nicotine 0.06 g/L (0.370 mM), 9% water, nicotine/glycerol system, 23° C.) | psKa2 ([2]; nicotine 0.3 g/L (1.85 mM), 9% water, nicotine/glycerol system, 23° C.) | psKa2 ([2]; nicotine 0.6 g/L (3.70 mM), 9% water, nicotine/glycerol system, 23° C.) | psKa2 ([2]; nicotine 3 g/L (18.53 mM), 9% water, nicotine/glycerol system, 23° C.) |
| --- | --- | --- | --- | --- | --- | --- | --- | --- |
| O=C(O)c1ccccc1 [benzoic acid] | greater | less | – | – | – | – | – | – |
| CC(=O)CCC(=O)O [levulinic acid] | greater | – | – | – | – | – | – | – |
| CN1CCC[C@H]1c1cccnc1 [nicotine, 3-(1-methylpyrrolidin-2-yl) pyridine] | – | – | 7.26 | 7.49 | 7.34 | 7.30 | 7.27 | 7.25 |
